As usually defined, the MIC is the lowest concentration found to suppress growth. Read a low MIC as greater potency.

Data on eleven compounds can be found in US20100184684A1, “ANTIBACTERIAL AND ANTIFUNGAL PEPTIDES” (C3 JIAN, INC., priority 2009, published 2010).

≈ marks a conversion by molar mass, not a printed value. Read-outs that look alike come from different tables or passages of the source. Ends that are not written are not given here. Peptide text beside a SMILES is read from it.

The test system of one assay is B. subtilis. The format is cell-based, Bacillus subtilis. The procedure:
(§1) In certain embodiments the MIC assays are performed as described herein in the Examples. For each organism, the media and growth conditions utilized is detailed in Table 8.
(§2) In certain embodiments the MIC assays are performed as follows: For each organism, the media and growth conditions utilized is detailed in Table 8.

For another assay, the system named is MRSA. The format is cell-based, Staphylococcus aureus. The procedure: as §1, §2
The next assay has as its system A. baumannii. The format is cell-based, Acinetobacter baumannii. To be noted: A. baumannii; LB, 30° C., anaerobic, 10^5 CFU/ml. On the procedure: as §1, §2
A further assay deals with T. rubrum. The format is cell-based, Trichophyton rubrum. The procedure:
as §1, §2

In the next assay the test system is S. epidermidis. The format is cell-based. The procedure:
as §1, §2

A further assay has as its system C. albicans. The format is cell-based, Candida albicans. On the procedure: as §1, §2
The test system of another assay is C. difficile. The format is cell-based, Clostridium difficile. The procedure: as §1, §2
The subject of another assay is P. aeruginosa. The format is cell-based, Pseudomonas aeruginosa. Conditions: P. aeruginosa; MH, 37° C., aerobic, 10^5 CFU/ml. On the procedure: as §1, §2
The subject of the next assay is A. niger. The format is cell-based, Aspergillus niger. The procedure: as §1, §2
Another assay deals with S. mutans. The format is cell-based, Streptococcus mutans. The procedure:
as §1, §2

Another assay concerns P. gingivalis. The format is cell-based, Porphyromonas gingivalis. On the procedure: as §1, §2
Another assay concerns A. naeslundii. The format is cell-based, Actinomyces naeslundii. On the procedure: as §1, §2
The test system of the next assay is E. coli. The format is cell-based, Escherichia coli. On the procedure: as §1, §2
The subject of a further assay is S. pneumoniae. The format is cell-based, Streptococcus pneumoniae. On the procedure:
as §1, §2

The mark [1] stands for this setting: MRSA, BHI supplemented with 2% glucose, 37° C., aerobic, 10^5 CFU/ml.

`CC[C@H](C)[C@H](NC(=O)CNC(=O)[C@@H](N)CCSC)C(=O)N[C@H](C(=O)N[C@@H](C)C(=O)NCC(=O)N[C@H](C(=O)N[C@H](C(=O)N[C@@H](CCCCN)C(=O)N[C@@H](Cc1ccccc1)C(=O)N[C@H](C(=O)N[C@@H](CCCCN)C(=O)NCC(=O)N[C@@H](CC(C)C)C(=O)N[C@H](C(=O)N[C@@H](CCC(=O)O)C(=O)N[C@@H](CCCCN)C(=O)N[C@@H](Cc1ccccc1)C(=O)N[C@H](C(=O)NCC(=O)N[C@@H](CCCCN)C(=O)O)[C@@H](C)O)[C@@H](C)CC)[C@@H](C)CC)[C@@H](C)CC)[C@@H](C)CC)[C@@H](C)CC` [PF-006]: the MIC with B. subtilis (B. subtilis, BHI, 30° C., aerobic, 10^5 CFU/ml) is 25 µM (≈ 56.9 µg/mL); against MRSA (setting [1]), 50 µM (≈ 114 µg/mL); in the assay with A. baumannii, 50 µM (≈ 114 µg/mL).
Turning to `CC[C@H](C)[C@H](NC(=O)[C@H](CCCCN)NC(=O)[C@H](C)NC(=O)[C@H](Cc1ccccc1)NC(=O)[C@@H](NC(=O)[C@H](C)NC(=O)[C@H](CC(C)C)NC(=O)[C@H](CO)NC(=O)[C@@H](N)CC(C)C)[C@@H](C)O)C(=O)N[C@@H](Cc1ccccc1)C(=O)N[C@@H](CCSC)C(=O)N[C@H](C(=O)N[C@@H](CCCNC(=N)N)C(=O)N[C@@H](CO)C(=O)N[C@@H](CC(N)=O)C(=O)N[C@@H](Cc1c[nH]c2ccccc12)C(=O)N[C@@H](CO)C(=O)N[C@@H](CC(C)C)C(=O)N[C@@H](CCCCN)C(=O)N[C@@H](CCCNC(=N)N)C(=O)N[C@@H](Cc1ccccc1)C(=O)N[C@@H](CC(N)=O)C(=O)N[C@@H](CCCNC(=N)N)C(=O)N[C@@H](CC(C)C)C(=O)O)[C@@H](C)O` [PF-278] (H-LSLATFAKIFMTRSNWSLKRFNRL-OH; N-terminus and C-terminus assumed), the MIC in the assay on T. rubrum, in the assay with S. epidermidis and against C. albicans was 50 µM in each case.
As for `CC[C@H](C)[C@H](NC(=O)[C@H](CO)NC(=O)[C@H](CC(N)=O)NC(=O)[C@H](CCCNC(=N)N)NC(=O)[C@H](CC(N)=O)NC(=O)[C@H](CC(C)C)NC(=O)[C@H](CCCCN)NC(=O)[C@H](CCCCN)NC(=O)[C@H](CCCCN)NC(=O)[C@@H](NC(=O)[C@@H]1CCCN1C(=O)[C@H](CO)NC(=O)[C@H](CCCNC(=N)N)NC(=O)[C@@H](NC(=O)[C@H](CCCNC(=N)N)NC(=O)[C@@H](NC(=O)[C@@H](N)CCSC)[C@@H](C)CC)[C@@H](C)CC)[C@@H](C)O)C(=O)N[C@@H](CO)C(=O)N[C@@H](CC(=O)O)C(=O)N[C@@H](Cc1c[nH]c2ccccc12)C(=O)N[C@@H](CCCCN)C(=O)N[C@@H](CO)C(=O)N[C@@H](CC(N)=O)C(=O)N[C@H](C(=O)N[C@@H](CO)C(=O)NCC(=O)N[C@@H](CCCNC(=N)N)C(=O)N[C@@H](Cc1ccccc1)C(=O)N[C@@H](Cc1ccccc1)C(=O)N[C@@H](Cc1ccc(O)cc1)C(=O)O)[C@@H](C)O` [PF-283] (H-MIRIRSPTKKKLNRNSISDWKSNTSGRFFY-OH; N-terminus and C-terminus assumed), the MIC against T. rubrum, in the assay with B. subtilis and in the assay on S. epidermidis was 50 µM (≈ 182 µg/mL) in each case.
On to `CC[C@H](C)[C@H](NC(=O)[C@H](CCCCN)NC(=O)CNC(=O)[C@H](CC(C)C)NC(=O)[C@H](CC(N)=O)NC(=O)[C@@H](NC(=O)[C@H](CCC(=O)O)NC(=O)[C@H](CC(C)C)NC(=O)[C@H](Cc1c[nH]c2ccccc12)NC(=O)[C@H](CC(=O)O)NC(=O)[C@@H](NC(=O)[C@H](CC(C)C)NC(=O)[C@H](CCC(=O)O)NC(=O)[C@@H](N)Cc1ccccc1)C(C)C)[C@@H](C)O)C(=O)N[C@@H](CC(C)C)C(=O)N[C@@H](CCCCN)C(=O)N[C@@H](CO)C(=O)N[C@@H](CCCCN)C(=O)N[C@@H](CO)C(=O)N[C@@H](C)C(=O)O` [PF-522] (H-FELVDWLETNLGKILKSKSA-OH; N-terminus and C-terminus assumed), for which, in the assay with C. difficile, the MIC was determined as 25 µM (≈ 57.3 µg/mL).
For the compound `CC[C@H](C)[C@H](NC(=O)[C@H](CCCNC(=N)N)NC(=O)[C@@H](NC(=O)[C@H](CCCCN)NC(=O)[C@H](CCCCN)NC(=O)[C@H](CC(C)C)NC(=O)[C@H](CC(C)C)NC(=O)[C@H](CCCCN)NC(=O)[C@H](CCCNC(=N)N)NC(=O)[C@H](Cc1c[nH]cn1)NC(=O)[C@H](CCCCN)NC(=O)[C@H](CCCCN)NC(=O)[C@H](CCCCN)NC(=O)[C@H](C)NC(=O)[C@H](CCSC)NC(=O)[C@H](CCCNC(=N)N)NC(=O)[C@H](CCCCN)NC(=O)[C@H](CCCNC(=N)N)NC(=O)[C@H](CCCNC(=N)N)NC(=O)[C@H](CCCCN)NC(=O)[C@H](CCCCN)NC(=O)[C@@H](NC(=O)[C@@H](NC(=O)[C@H](CO)NC(=O)CN)C(C)C)[C@@H](C)CC)[C@@H](C)O)C(=O)N[C@@H](CCC(N)=O)C(=O)N[C@@H](CCCNC(=N)N)C(=O)N[C@@H](CCCNC(=N)N)C(=O)N[C@@H](CCCNC(=N)N)C(=O)N[C@@H](C)C(=O)NCC(=O)N[C@@H](CCCCN)C(=O)O` [PF-527] (H-GSVIKKRRKRMAKKKHRKLLKKTRIQRRRAGK-OH; N-terminus and C-terminus assumed), the MIC against P. aeruginosa came out at 50 µM (≈ 197 µg/mL); in the assay with T. rubrum (T. rubrum, Potato Dextrose Agar, 25° C., aerobic, 10^5 CFU/ml), 25 µM (≈ 98.5 µg/mL); against MRSA (setting [1]) it was 50 µM (≈ 197 µg/mL); in the assay on S. epidermidis (S. epidermidis, BHI supplemented with 0.25% glucose, 37° C., aerobic, 10^5 CFU/ml), 25 µM (≈ 98.5 µg/mL); against A. niger (A. niger, Potato Dextrose Agar, 25° C., aerobic, 10^5 CFU/ml), 50 µM (≈ 197 µg/mL).
As for `CC[C@H](C)[C@H](NC(=O)[C@H](CCCNC(=N)N)NC(=O)[C@H](CCCNC(=N)N)NC(=O)[C@H](CCCNC(=N)N)NC(=O)[C@@H](NC(=O)[C@H](CCSC)NC(=O)[C@H](CC(=O)O)NC(=O)[C@H](C)NC(=O)[C@H](CCSC)NC(=O)[C@H](C)NC(=O)[C@@H](NC(=O)[C@H](CC(C)C)NC(=O)[C@H](CCCCN)NC(=O)[C@H](CO)NC(=O)[C@H](CCC(=O)O)NC(=O)[C@@H](N)CCCNC(=N)N)[C@@H](C)CC)[C@@H](C)CC)C(=O)O` [PF-545] (H-RESKLIAMADMIRRRI-OH; N-terminus and C-terminus assumed), the MIC is 25 µM (≈ 49 µg/mL) against B. subtilis, 50 µM (≈ 98 µg/mL) against MRSA and 50 µM (≈ 98 µg/mL) against A. niger.
Consider `CC(C)[C@H](NC(=O)[C@H](CCCCN)NC(=O)[C@H](Cc1c[nH]c2ccccc12)NC(=O)CNC(=O)[C@@H](NC(=O)[C@H](CC(=O)O)NC(=O)[C@H](CO)NC(=O)[C@H](Cc1c[nH]cn1)NC(=O)CNC(=O)[C@@H]1CCCN1C(=O)[C@@H](NC(=O)[C@H](CCCNC(=N)N)NC(=O)[C@H](CO)NC(=O)[C@@H](N)Cc1c[nH]c2ccccc12)C(C)C)[C@@H](C)O)C(=O)N[C@@H](Cc1c[nH]c2ccccc12)C(=O)N[C@@H](Cc1c[nH]cn1)C(=O)N[C@@H](CCCNC(=N)N)C(=O)N[C@@H](Cc1c[nH]c2ccccc12)C(=O)O` [PF-547] (H-WSRVPGHSDTGWKVWHRW-OH; N-terminus and C-terminus assumed), for which the MIC came out at 25 µM (≈ 56.9 µg/mL) against T. rubrum, 25 µM (≈ 56.9 µg/mL) in the assay on B. subtilis and 12.5 µM (≈ 28.5 µg/mL) against S. mutans.
Take `CC[C@H](C)[C@H](NC(=O)[C@H](CCCNC(=N)N)NC(=O)[C@@H]1CCCN1C(=O)[C@H](CCC(=O)O)NC(=O)[C@H](CC(C)C)NC(=O)[C@@H]1CCCN1C(=O)[C@H](CC(=O)O)NC(=O)[C@@H](N)CC(C)C)C(=O)N[C@@H](C)C(=O)N1CCC[C@H]1C(=O)N1CCC[C@H]1C(=O)NCC(=O)N[C@@H](CC(=O)O)C(=O)N[C@@H](CCCNC(=N)N)C(=O)N[C@@H](CO)C(=O)N[C@@H](Cc1c[nH]cn1)C(=O)N[C@@H](CCC(N)=O)C(=O)NCC(=O)N[C@@H](C)C(=O)N1CCC[C@H]1C(=O)N[C@@H](C)C(=O)N[C@@H](CS)C(=O)N[C@@H](Cc1c[nH]cn1)C(=O)N[C@@H](CCCNC(=N)N)C(=O)N[C@@H](CC(=O)O)C(=O)N1CCC[C@H]1C(=O)N[C@@H](CC(C)C)C(=O)N[C@@H](CCCNC(=N)N)C(=O)NCC(=O)N[C@@H](CCCNC(=N)N)C(=O)N[C@@H](CO)C(=O)N[C@@H](C)C(=O)N[C@@H](CCCNC(=N)N)C(=O)N[C@@H](CC(=O)O)C(=O)N[C@@H](C)C(=O)N[C@@H](CCC(=O)O)C(=O)N[C@@H](CCCNC(=N)N)C(=O)O` [PF-C019] (H-LDPLEPRIAPPGDRSHQGAPACHRDPLRGRSARDAER-OH; N-terminus and C-terminus assumed): the results for the MIC with T. rubrum, with S. mutans and in the assay with A. niger were 50 µM (≈ 204 µg/mL), 25 µM (≈ 102 µg/mL) and 50 µM (≈ 204 µg/mL), respectively.
Consider `CC(C)[C@H](NC(=O)[C@@H](N)Cc1ccc(O)cc1)C(=O)N[C@@H](CC(N)=O)C(=O)N[C@@H](Cc1ccc(O)cc1)C(=O)N[C@@H](CC(N)=O)C(=O)N[C@@H](CCC(N)=O)C(=O)N[C@@H](CO)C(=O)N[C@@H](Cc1ccccc1)C(=O)N[C@@H](CC(N)=O)C(=O)N[C@@H](CO)C(=O)NCC(=O)N[C@@H](Cc1c[nH]c2ccccc12)C(=O)O` [PF-C220] (H-YVNYNQSFNSGW-OH; N-terminus and C-terminus assumed), for which, in the assay on C. albicans, the MIC stood at 50 µM (≈ 73.9 µg/mL).
Consider “MPVSKKRYMLSSAYATALGICYGQVATDEKESEITAIPDLLDYLSVEEYLL [PF-C163]”, for which the MIC against P. gingivalis, against S. epidermidis and in the assay with A. naeslundii was 50 µM in each case.
Take “TKKIELKRFVDAFVKKSYENYILERELKKLIKAINEELPTK [PF-600]”: the MIC against E. coli and in the assay with S. pneumoniae was 50 µM throughout.
